Measured values taken from patent US9932637B2, “Genetic polymorphisms associated with cardiovascular disorders and drug response, methods of detection and uses thereof” (CELERA CORPORATION, priority 2003, dated 2018).

Tested on: patients with prior myocardial infarction (CARE study)
Assay: CARE: association of SNPs with pravastatin treatment in cardiovascular events prevention (logistic regression, odds ratio pravastatin vs placebo by genotype; Table 8)
Format: in vivo, human
From the text: In order to identify genetic markers associated with acute coronary events (e.g. MI, stroke, unstable angina, congestive heart failure, etc.) or response to statin treatment for the prevention of coronary events, samples from the Cholesterol and Recurrent Events (CARE) study (a randomized multicentral double-blinded trial on secondary prevention of acute coronary events with pravastatin) (Sacks et al., 1991, Am. J. Cardiol. 68: 1436-1446) were genotyped. A well-documented myocardial infarction (MI) was one of the enrollment criteria for entry into the CARE study. Patients were enrolled in the CARE trial from 80 participating study centers. […] Patients were randomized to receive either 40 mg of pravastatin once daily or a matching placebo. The primary endpoint of the trial was death from coronary heart disease and the median duration of follow-up was 5.0 years (range, 4.0 to 6.2 years). […] Secondary endpoints of other related cardiovascular or metabolic disease events, and changes in clinical variables were also recorded in pravastatin-treated and placebo groups. All individuals included in the study had signed a written informed consent form and the study protocol was approved by the respective Institutional Review Boards (IRBs).
For genotyping SNPs in CARE patient samples, DNA was extracted from blood samples using conventional DNA extraction methods such as the QIA-amp kit from Qiagen. Genotypes were obtained on an ABI PRISM® 7900HT Sequence Detection PCR system (Applied Biosystems, Foster City, Calif.) by kinetic allele-specific PCR, similar to the method described by Germer et al. (Germer S., Holland M. J., Higuchi R. 2000, Genome Res. 10: 258-266).
Statistical analysis for association of SNPs with pravastatin treatment in cardiovascular events prevention (Table 8) was carried out using an overall logistic regression model that included an intercept, a parameter for the effect of a genotype containing two rare alleles versus a genotype containing no rare alleles, a parameter for the effect of a genotype containing one rare allele versus a genotype containing no rare alleles, a parameter for the effect of use of pravastatin versus the use of placebo, and parameters for the interaction effects between SNP genotypes and pravastatin use. The test of the overall model is a chi-square test with two degrees of freedom for analyses containing all three genotypes, and one degree of freedom for analyses containing two genotypes.
Effect sizes were estimated through odds ratios (pravastatin group versus placebo) for carriers of each genotype (groups of 0, 1, and 2 minor allele carriers). The effect was considered to be significant if p-value for testing whether any of the interactions between SNP genotypes and pravastatin use were <0.05. […] Odds ratios less than one indicate that the specific SNP allele has a protective effect and odds ratios greater than one indicate that the specific SNP allele has an adverse effect.

[1] = IL9 hCV3275199, All Patients, 0 Rare Alleles, Prava arm
[2] = IL9 hCV3275199, All Patients, 1 Rare Allele, Prava arm
[3] = IL9 hCV3275199, All Patients, 2 Rare Alleles, Prava arm
[4] = IL12A hCV16053900, All Patients, 0 Rare Alleles, Prava arm
[5] = IL12A hCV16053900, All Patients, 1 Rare Allele, Prava arm
[6] = IL12A hCV16053900, All Patients, 2 Rare Alleles, Prava arm
[7] = KLK14 hCV16044337, All Patients, 0 Rare Alleles, Prava arm
[8] = KLK14 hCV16044337, All Patients, 1 Rare Allele, Prava arm
[9] = KLK14 hCV16044337, All Patients, 2 Rare Alleles, Prava arm
[10] = LAMA5 hCV25629492, All Patients, 0 Rare Alleles, Prava arm
[11] = LAMA5 hCV25629492, All Patients, 1 Rare Allele, Prava arm
[12] = LAMA5 hCV25629492, All Patients, 2 Rare Alleles, Prava arm
[13] = LRP8 hCV190754, All Patients, Hosp. for Unstable Angina
[14] = MARK3 hCV25926771, All Patients, 0 Rare Alleles, Prava arm
[15] = MARK3 hCV25926771, All Patients, 1 Rare Allele, Prava arm
[16] = MJD hCV16189421, All Patients, 0 Rare Alleles, Prava arm

CC[C@H](C)C(=O)O[C@H]1C[C@H](O)C=C2C=C[C@H](C)[C@H](CC[C@@H](O)C[C@@H](O)CC(=O)O)[C@H]21 [pravastatin]
Nonfatal MI (Probable/Definite), n/total (%) [1]: (10.4%)
Nonfatal MI (def & prob), n/total (%) [1]: (9.8%)
Fatal/Nonfatal MI (def & prob), n/total (%) [2]: (6.0%)
MI (Fatal/Nonfatal), n/total (%) [2]: (6.0%)
Nonfatal MI (Probable/Definite), n/total (%) [2]: (5.7%)
Nonfatal MI (def & prob), n/total (%) [2]: (5.7%)
Fatal/Nonfatal MI (def & prob), n/total (%) [3]: (6.1%)
MI (Fatal/Nonfatal), n/total (%) [3]: (6.1%)
Nonfatal MI (Probable/Definite), n/total (%) [3]: (6.1%)
Nonfatal MI (def & prob), n/total (%) [3]: (6.1%)
Coronary Artery Bypass Graft, n/total (%) [4]: (4.9%)
Coronary Artery Bypass or Revascularization, n/total (%) [4]: (11.0%)
Coronary Artery Bypass Graft, n/total (%) [5]: (8.9%)
Coronary Artery Bypass or Revascularization, n/total (%) [5]: (16.2%)
Coronary Artery Bypass Graft, n/total (%) [6]: (7.2%)
Coronary Artery Bypass or Revascularization, n/total (%) [6]: (14.8%)
Coronary Artery Bypass Graft, n/total (%) [7]: (8.7%)
Definite Nonfatal MI, n/total (%) [7]: (7.1%)
Fatal CHD/Definite Nonfatal MI, n/total (%) [7]: (9.5%)
Fatal/Nonfatal MI (def & prob), n/total (%) [7]: (9.8%)
MI (Fatal/Nonfatal), n/total (%) [7]: (10.1%)
Nonfatal MI (Probable/Definite), n/total (%) [7]: (9.7%)
Nonfatal MI (def & prob), n/total (%) [7]: (9.1%)
Coronary Artery Bypass Graft, n/total (%) [8]: (6.2%)
Definite Nonfatal MI, n/total (%) [8]: (7.2%)
Fatal CHD/Definite Nonfatal MI, n/total (%) [8]: (9.9%)
Fatal/Nonfatal MI (def & prob), n/total (%) [8]: (10.0%)
MI (Fatal/Nonfatal), n/total (%) [8]: (10.2%)
Nonfatal MI (Probable/Definite), n/total (%) [8]: (9.4%)
Nonfatal MI (def & prob), n/total (%) [8]: (9.1%)
Coronary Artery Bypass Graft, n/total (%) [9]: (5.6%)
Definite Nonfatal MI, n/total (%) [9]: (4.4%)
Fatal CHD/Definite Nonfatal MI, n/total (%) [9]: (5.6%)
Fatal/Nonfatal MI (def & prob), n/total (%) [9]: (6.9%)
MI (Fatal/Nonfatal), n/total (%) [9]: (6.9%)
Nonfatal MI (Probable/Definite), n/total (%) [9]: (6.3%)
Nonfatal MI (def & prob), n/total (%) [9]: (6.3%)
Definite Nonfatal MI, n/total (%) [10]: (8.8%)
Fatal/Nonfatal MI (def & prob), n/total (%) [10]: (12.1%)
Nonfatal MI (def & prob), n/total (%) [10]: (11.3%)
Definite Nonfatal MI, n/total (%) [11]: (5.4%)
Fatal/Nonfatal MI (def & prob), n/total (%) [11]: (7.7%)
Nonfatal MI (def & prob), n/total (%) [11]: (7.4%)
Definite Nonfatal MI, n/total (%) [12]: (4.1%)
Fatal/Nonfatal MI (def & prob), n/total (%) [12]: (7.7%)
Nonfatal MI (def & prob), n/total (%) [12]: (5.4%)
Hosp. for Unstable Angina, n/total (%) (LRP8 hCV190754, All Patients, 0 Rare Alleles, Prava, n/total 98/560): (17.5%)
Hosp. for Unstable Angina, n/total (%) (LRP8 hCV190754, All Patients, 1 Rare Allele, Prava, n/total 100/712): (14.0%)
Hosp. for Unstable Angina, n/total (%) (LRP8 hCV190754, All Patients, 2 Rare Alleles, Prava, n/total 32/244): (13.1%)
Prava vs. Placebo Odds Ratio, 0 Rare Alleles [13]: 1.21
Prava vs. Placebo Odds Ratio, 1 Rare Alleles [13]: 0.70
Prava vs. Placebo Odds Ratio, 2 Rare Alleles [13]: 0.54
Definite Nonfatal MI, n/total (%) [14]: (6.7%)
Fatal CHD/Definite Nonfatal MI, n/total (%) [14]: (9.9%)
Definite Nonfatal MI, n/total (%) [15]: (7.0%)
Fatal CHD/Definite Nonfatal MI, n/total (%) [15]: (9.1%)
Fatal/Nonfatal MI (def & prob), n/total (%) [16]: (8.4%)
Hosp. for Unstable Angina, n/total (%) [16]: (14.4%)
